Reference: patent US11066398B2, “Small molecule c-Myc inhibitors” (THE SCRIPPS RESEARCH INSTITUTE, priority 2013, dated 2021)

Assays:
v-src, and v-jun = details: CEF specificity assay
Method: Assay for oncogenic transformation in cell culture. […] CEF were infected with a series of ten-fold dilutions of the indicated virus. Compounds were added to the nutrient agar overlay. Additional compound-containing overlay was added every 3 days until experimental end point.
The specificity of the inhibitory activities of the analog compounds was also examined.

ATG-Myc = ATG-Myc (Homo sapiens, UniProt P01106); assay: Myc-induced oncogenic transformation (focus assay) in chicken embryo fibroblasts; assay type: cell-based; details: for Inhibition of ATG-Myc focus formation: CEF focus assay, concentration of 10 μM; for EOT (efficiency of transformation): focus counts in the presence of inhibitor over focus counts of control plates, CEF infected with RCAS ATG-Myc
MYC = assay: Myc levels by Western blot in MDA-MB-231 and NCI-H460 cells; assay type: cell-based, human; details: 20 μM, 24 hrs
Method: (§1) NCI-H460 cells were grown in RPMI medium, and MDA-MB-231 cells were grown in DMEM medium; both media contained 10% FBS. KJ-Pyr-9 and 10058-F4 were added at a concentration of 20 μM and the cells were treated for 24 hrs before Western blot analysis.
(§2) Interference with Myc transcriptional activity of Myc affects the transcription of a large number of target genes and can function as activator or repressor. […] NDRG1 is a direct transcriptional target of Myc that acts as a repressor of this gene. For comparison, we used the previously identified inhibitor of MYC-MAX dimerization that binds to the disordered monomer and prevents Myc from adopting a conformation needed for the interaction with MAX (Wang et al., Mol. Cancer Ther. 6:2399-2408, 2007; and Huang et al., Exp. Hematol. 34:1480-1489, 2006). Both KJ-Pyr-9 and 10058-F4 cause an increase of NDRG1 expression (FIG. 4).

[1] = test system: NDRG1 (N-myc downregulated gene 1); assay: NDRG1 expression by Western blot in MDA-MB-231 and NCI-H460 cells; assay type: cell-based, human; details: 20 μM, 24 hrs
Method: as §1, §2

Chain of ATG-Myc (P01106 whole entry): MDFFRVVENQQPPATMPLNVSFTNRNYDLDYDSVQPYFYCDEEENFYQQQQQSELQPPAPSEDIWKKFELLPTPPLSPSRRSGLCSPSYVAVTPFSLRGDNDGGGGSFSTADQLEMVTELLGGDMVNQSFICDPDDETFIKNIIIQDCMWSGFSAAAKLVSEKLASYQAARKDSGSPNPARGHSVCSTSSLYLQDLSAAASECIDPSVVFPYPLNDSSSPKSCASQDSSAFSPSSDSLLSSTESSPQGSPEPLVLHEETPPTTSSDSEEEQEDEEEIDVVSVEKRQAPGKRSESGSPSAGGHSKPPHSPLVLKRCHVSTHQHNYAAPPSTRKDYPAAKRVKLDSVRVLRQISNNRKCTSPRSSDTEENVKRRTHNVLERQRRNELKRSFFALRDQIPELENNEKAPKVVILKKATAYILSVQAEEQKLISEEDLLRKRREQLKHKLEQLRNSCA

For `N#Cc1ccc(-c2cc(-c3ccc(C(N)=O)cc3)cc(-c3ccco3)n2)cc1` [CG-RS-47], the “Specificity for inhibiting Myc over v-src, 111047R and v-jun” value (v-src, and v-jun) was “some degrees of specificity” and the “Inhibition of ATG-Myc focus formation” value (ATG-Myc) was “no foci formation”.

For `NC(=O)c1ccc(-c2cc(-c3ccc([N+](=O)[O-])cc3)nc(-c3ccco3)c2)o1` [CG-RS-50, 5-(2-(furan-2-yl)-6-(4-nitrophenyl)pyridin-4-yl)furan-2-carboxamide], the “Inhibition of ATG-Myc focus formation” value (ATG-Myc) was “some inhibiting activities” and the “Inhibition of Myc oncogenic activity in CEF transformation assay” value (ATG-Myc; CEF, ATG-Myc) was “effective”.

`NC(=O)c1ccc(-c2cc(-c3ccc(C(F)(F)F)cc3)nc(-c3ccco3)c2)cc1` [CG-RS-54] was tested, and the “Inhibition of ATG-Myc focus formation” value (ATG-Myc) was “some inhibiting activities”.

For `NC(=O)c1ccc(-c2cc(-c3ccc(OC(F)(F)F)cc3)nc(-c3ccco3)c2)cc1` [CG-RS-55], the “Inhibition of ATG-Myc focus formation” value (ATG-Myc) was “some inhibiting activities”.

In the case of `CS(=O)(=O)c1ccc(-c2cc(-c3ccc(C(N)=O)cc3)cc(-c3ccco3)n2)cc1` [CG-RS-58], the “Inhibition of ATG-Myc focus formation” value (ATG-Myc) is reported as “no inhibition”.

In the case of `NC(=O)c1ccc(-c2cc(-c3ccc(SC(F)(F)F)cc3)nc(-c3ccco3)c2)cc1` [CG-RS-61], the “Inhibition of ATG-Myc focus formation” value (ATG-Myc) is reported as “no inhibition”.

`COC(=O)c1ccc(-c2cc(-c3ccc(C(N)=O)cc3)cc(-c3ccco3)n2)cc1` [CG-RS-64] was tested, and the “Inhibition of ATG-Myc focus formation” value (ATG-Myc) was “no inhibition”.

For `COC(=O)c1cccc(-c2cc(-c3ccc(C(N)=O)cc3)cc(-c3ccco3)n2)c1` [CG-RS-70], the “Cell growth in CEF focus assay” value (ATG-Myc; CEF) was “slight decrease in cell growth” and the “Inhibition of ATG-Myc focus formation” value (ATG-Myc) was “no foci formation”.

In the case of `NC(=O)c1ccc(-c2cc(-c3ccc(Br)cc3)nc(-c3ccc([N+](=O)[O-])cc3)c2)cc1` [CG-RS-90], the “Inhibition of ATG-Myc focus formation” value (ATG-Myc) is reported as “no inhibition”.

For `NC(=O)c1ccc(-c2cc(-c3ccc([N+](=O)[O-])cc3)nc(-c3ccccc3Br)c2)cc1` [CG-RS-91], the “Inhibition of ATG-Myc focus formation” value (ATG-Myc) was “no inhibition”.

`NC(=O)c1ccc(-c2cc(-c3ccc([N+](=O)[O-])cc3)nc(-c3cccc(Br)n3)c2)cc1` [CG-RS-106] was tested, and the “Inhibition of ATG-Myc focus formation” value (ATG-Myc) was “no inhibition”.

For `NC(=O)c1ccc(-c2cc(-c3ccc([N+](=O)[O-])cc3)nc(-c3ccc(Br)cn3)c2)cc1` [CG-RS-123], the “Inhibition of ATG-Myc focus formation” value (ATG-Myc) was “no inhibition”.

With `NC(=O)c1ccc(-c2cc(-c3ccc([N+](=O)[O-])cc3)nc(-c3ccccn3)c2)cc1` [CG-RS-128] the “Inhibition of ATG-Myc focus formation” value (ATG-Myc) was “no inhibition”.

With `NC(=O)c1ccc(-c2cc(-c3ccncc3)nc(-c3ccc([N+](=O)[O-])cc3)c2)cc1` [CG-RS-129] the “Specificity for inhibiting Myc over v-src, 111047R and v-jun” value (v-src, and v-jun) was “some degrees of specificity”, the “Cell growth in CEF focus assay” value (ATG-Myc; CEF) was “slight decrease in cell growth” and the “Inhibition of ATG-Myc focus formation” value (ATG-Myc) was “no foci formation”.

`CCc1ccc(/C=C2/SC(=S)NC2=O)cc1` [Compound 10058-F4, reference compound] was tested, and the “Effect on Myc levels” value (MYC) was “strong decrease” and the NDRG1 expression [1] was “increase”.

`NC(=O)c1ccc(-c2ccc(-c3cc(-c4ccccc4)nc(-c4ccco4)c3)cc2)cc1` [KJ-Pyr-4, 4′-(2-(furan-2-yl)-6-phenylpyridin-4-yl)-[1,1′-biphenyl]-4-carboxamide] was tested, and the “EOT (efficiency of transformation)” value (ATG-Myc) was 1.12.

`COc1ccc(-c2cc(-c3ccc(C(N)=O)o3)cc(-c3ccco3)n2)cc1` [KJ-Pyr-6, 5-(2-(furan-2-yl)-6-(4-methoxyphenyl)pyridin-4-yl)furan-2-carboxamide] was tested, and the “EOT (efficiency of transformation)” value (ATG-Myc) was 0.79.
